Assay: Administration test of triglyceride to rat: blood decanoic acid concentration
Settings: in vivo, po
Protocol: Male SD rats aged 7 weeks (Japan SLC, Inc.) were kept using a TPX cage (W21.8×D37.3×H18.1 cm) with three rats or less/cage. The rats were fed ad libitum with solid feed “Labo MR stock” (Nosan Corporation.) sterilized with radiation throughout the feeding period, and fasted about 16 hours before the administration of a test fat and oil sample. The rats were fed ad libitum with distilled water as drinking water using a water supply bottle. The acclimation period was a week, and it was confirmed that abnormalities of general conditions were not observed on the final day of the acclimation period, and body weight was measured using an electronic scale (GX-3000; A & D Company, Limited). The rats were divided into 6 groups for each test fat and oil sample using a grouping software (Statlight; Yukms Co., Ltd.) so that the body weight of the groups was almost equal (6 rats in each group).
Each TG was orally administered in a single dose at 1 mL/body using a 1 mL disposable syringe and a disposable gastric tube for rats. […]
To the extracted lipid fraction, 2 ml of a 0.5 mol/L NaOH-methanol solution was added. […] The hexane layer was transferred to a vial, and used for GC (Agilent Technologies) in the conditions shown in Table 3, and the blood decanoic acid concentration was determined by the internal standard method. […]

## CCCCCCCCCC(=O)OCC(COC(=O)CCCCCCCCC)OC(=O)CCCCCCCCC [TG1, tridecanoin]
  Blood decanoic acid concentration, average value: 124.4 µM

Reference: patent publication US20240156773A1, “METHOD FOR INCREASING BLOOD DECANOIC ACID CONCENTRATION, BLOOD-DECANOIC-ACID-CONCENTRATION-INCREASING AGENT, PHARMACEUTICAL COMPOSITION, AND FOOD COMPOSITION” (The Nisshin OilliO Group, Ltd., priority 2021, published 2024)
